Data on 4 compounds can be found in US20250222009A1, “DINUCLEAR GOLD(I) COMPLEXES FOR TREATING CANCER” (KING FAHD UNIVERSITY OF PETROLEUM AND MINERALS, priority 2024, published 2025).

In assay [1] the test system is A2780 ovarian cancer cells. The conditions noted are these: from J Med Chem 2022, 65, 14424; cited from earlier work.
The test system of assay [2] is A2780cis (cisplatin-resistant clone of A2780). The conditions noted are these: from J Med Chem 2022, 65, 14424; cited from earlier work.
A further assay relates to A549 (lung cancer cells). Kind of assay: MTT cytotoxicity assay, A549. The class given is cell-based, human. The conditions noted are these: 72 h, mean (SD). How it is done: (§1) The human epithelial ovarian cancer A2780 cell line and its cisplatin-resistant clone A2780cis were obtained from Sigma-Aldrich (Milano, Italy). A2780cis cells were continuously exposed to 1 μM cisplatin to maintain cisplatin resistance. A549 cells (Human non-small cell lung cancer), MCF7 (metastatic breast cancer), PC3 (highly aggressive metastatic prostate cancer), and MG63 (osteosarcoma) were obtained from the American Type Culture Collection (ATCC). Cells were authenticated in laboratory using the PowerPlex 16 HS System. A2780, A2780cis, and PC3 cells were cultured in RPMI-1640 medium; MG63 and MCF7 cells were cultured in DMEM, and A549 cells were cultured in F12 NUT-MIX. The culture medium contained about 10% fetal bovine serum (FBS) (Gibco, Thermo Fisher Scientific, Monza, Italy), about 1% (v/v) of penicillin (10,000 units/mL)-streptomycin (10 mg/mL), and about 1% (v/v) L-glutamine (200 mM) (all from Sigma-Aldrich). Cells were cultured at 37° C. in a 5% CO2, fully humidified atmosphere.
(§2) 2.5×10^3 (PC3, MG63, MCF7) or 4.0×10^3 (A2780, A2780cis, A549) cells were seeded in 96-well microplates in 100 μL culture medium. Cells, allowed to adhere for 24 h, were then treated in triplicate with increasing concentrations of gold compounds. Cisplatin was included as a reference drug. Cell viability was evaluated using 3-(4,5-dimethylthiazol-2-yl)-2,5-diphenyltetrazolium bromide (MTT) assay (Sigma-Aldrich) after 72 h of treatment. Half maximal inhibitory concentrations (IC50), IC25, and IC75 were calculated using the CalcuSyn software version 2 (Biosoft, Ferguson, MO, USA) (See: Chou, T. C.; Talalay, P. Quantitative Analysis of Dose-Effect Relationships: The Combined Effects of Multiple Drugs or Enzyme Inhibitors. Adv. Enzyme Regul. 1984, 22, 27-55, which is incorporated herein by reference in its entirety). Fold resistance was calculated as the ratio of the IC50 of the A2780cis to that of the parental cell line A2780. Alternatively, cell viability was assayed by crystal violet staining (See: Feoktistova, M.; Geserick, P.; Leverkus, M. Crystal Violet Assay for Determining Viability of Cultured Cells. Cold Spring Harb Protoc 2016, 2016, pdb.prot087379, which is incorporated herein by reference in its entirety). Alternatively, after drug treatment, the culture Medium was removed, cells washed, fixed, and stained, and the Crystal Violet solution lasted 20 minutes (See: Sulaiman, A. A. A.; Casagrande, N.; Borghese, C.; Corona, G.; Isab, A. A.; Ahmad, S.; Aldinucci, D.; Altaf M. Design, Synthesis, and Preclinical Activity in Ovarian Cancer Models of New Phosphanegold(I)—N-Heterocyclic Carbene Complexes. J Med Chem 2022, 65, 14424-14440, which is incorporated herein by reference in its entirety).
(Tetrazolium dyes change colour on reduction, which living cells bring about.)

Assay [3] has as its system PC3 (androgen-resistant prostate cancer). As to the kind of experiment: MTT cytotoxicity assay, PC3. Format: cell-based. The conditions noted are these: 72 h, mean (SD). How it is done: as §1, §2
In another assay the test system is MCF-7 (breast cancer). Kind of assay: MTT cytotoxicity assay, MCF-7. Format: cell-based. The conditions noted are these: 72 h, mean, SD in next cell. The procedure: as §1, §2
The test system of a further assay is MG-63 (osteosarcoma). As to the kind of experiment: MTT cytotoxicity assay, MG-63. The class given is cell-based. The conditions noted are these: 72 h, mean, SD in next cell. How it is done: as §1
2.5×10^3 (PC3, MG63, MCF7) or 4.0×10^3 (A2780, A2780cis, A549) cells were seeded in 96-well microplates in 100 μL culture medium. Cells, allowed to adhere for 24 h, were then treated in triplicate with increasing concentrations of gold compounds. Cisplatin was included as a reference drug. Cell viability was evaluated using 3-(4,5-dimethylthiazol-2-yl)-2,5-diphenyltetrazolium bromide (MTT) assay (Sigma-Aldrich) after 72 h of treatment. Half maximal inhibitory concentrations (IC50), IC25, and IC75 were calculated using the CalcuSyn software version 2 (Biosoft, Ferguson, MO, USA) (See: Chou, T. C.; Talalay, P. Quantitative Analysis of Dose-Effect Relationships: The Combined Effects of Multiple Drugs or Enzyme Inhibitors. Adv. Enzyme Regul. 1984, 22, 27-55, which is incorporated herein by reference in its entirety). Fold resistance was calculated as the ratio of the IC50 of the A2780cis to that of the parental cell line A2780. […]

In assay [4] the test system is A2780 ovarian cancer cells. Kind of assay: MTT cytotoxicity assay, A2780. The class given is cell-based, human. The conditions noted are these: 72 h, mean (SD). The procedure:
as §1, §2

In assay [5] the test system is A2780cis (cisplatin-resistant clone of A2780). As to the kind of experiment: MTT cytotoxicity assay, A2780cis. Format: cell-based, human. The conditions noted are these: for Fold resistance (A2780cis/A2780): IC50 A2780cis/IC50 A2780; for IC50: MTT, 72 h, mean, SD in next cell. The procedure:
as §1, §2

The test system of a further assay is A549-MCTSs. As to the kind of experiment: 3D-A549-MCTS viability (PrestoBlue). Format: cell-based, human. The procedure:
To obtain multiple spheroids, 10.0×10^4 A549 cells were seeded in non-adherent conditions on poly-HEMA coated 96 wells (final volume, 200 μL) for four days. After drug treatment (72 h), the cell viability was determined using PrestoBlue Cell Viability Reagent (Thermo Fisher Scientific, Frederick, MD, USA) (See: Casagrande, N.; Celegato, M.; Borghese, C.; Mongiat, M.; Colombatti, A.; Aldinucci, D. Preclinical Activity of the Liposomal Cisplatin Lipoplatin in Ovarian Cancer. Clin Cancer Res 2014, 20, 5496-5506, which is incorporated herein by reference in its entirety).
3D-MCTSs are a model for in vitro drug testing (See: Zanoni, M.; Piccinini, F.; Arienti, C.; Zamagni, A.; Santi, S.; Polico, R.; Bevilacqua, A.; Tesei, A. 3D Tumor Spheroid Models for in Vitro Therapeutic Screening: A Systematic Approach to Enhance the Biological Relevance of Data Obtained. Sci Rep 2016, 6, 19103, which is incorporated herein by reference in its entirety) and to test drug tissue penetration. Thus, the effects of complex 3 in A549-MCTSs were determined by cultivating tumor cells in non-adherent conditions on poly-HEMA coated wells. […] Representative micro-photographs of A549-MCTSs treated with complex 3 (0.3-5 μM) and with cisplatin (15-250 μM) are shown in FIG. 9C.

Take `CC(C)c1cccc(C(C)C)c1-n1cc[n+](-c2c(C(C)C)cccc2C(C)C)[c]1[Au-][P+](C1CCCCC1)(C1CCCCC1)C1CCCCC1.ClC(Cl)Cl.F[P-](F)(F)(F)(F)F` [[Au(IPr)(Cy3P)]PF6·CHCl3]: in assay [1], the “anti-proliferative activity in A2780 cells (comparison)” value was “more active”. Also, the “anti-proliferative activity in A2780cis cells (comparison)” value in assay [2] is on record as “more active”.

A word on the IC50: it is the concentration that inhibits the measured activity by half. Regarding `CC(C)c1cccc(C(C)C)c1-n1ccn(-c2c(C(C)C)cccc2C(C)C)[c]1=[Au-][P+](CCC[P+]([Au-]=[c]1n(-c2c(C(C)C)cccc2C(C)C)ccn1-c1c(C(C)C)cccc1C(C)C)(c1ccccc1)c1ccccc1)(c1ccccc1)c1ccccc1` [Complex 2, [(Au(IPr))2(C27H26P2)](PF6)2], the IC50 is 260 nM with A549 (lung cancer cells); 250 nM in assay [3]; 280 nM in the assay on MCF-7 (breast cancer); 420 nM with MG-63 (osteosarcoma); 280 nM in [4]; 450 nM in assay [5]. Further, the “Fold resistance (A2780cis/A2780)” value in assay [5] was 1.61.

As for `CC(C)c1cccc(C(C)C)c1-n1ccn(-c2c(C(C)C)cccc2C(C)C)[c]1=[Au-][P+](CC[P+]([Au-]=[c]1n(-c2c(C(C)C)cccc2C(C)C)ccn1-c1c(C(C)C)cccc1C(C)C)(c1ccccc1)c1ccccc1)(c1ccccc1)c1ccccc1` [Complex 1, [(Au(IPr))2(C26H24P2)](PF6)2], the IC50 in the assay with A549 (lung cancer cells) was found to be 220 nM; in assay [3], 280 nM; with MCF-7 (breast cancer) it was 170 nM; with MG-63 (osteosarcoma), 310 nM; in assay [4], 280 nM; in assay [5] it was 330 nM. The “Fold resistance (A2780cis/A2780)” value in [5] is 1.18.

On to `N.N.[Cl][Pt][Cl]` [Cisplatin, reference compound], for which the 50% inhibitory concentration (IC50) stood at 6210 nM in the assay with A549 (lung cancer cells); 6200 nM with A549 (lung cancer cells) (listed as cisplatin); 3320 nM in assay [3]; 3300 nM in [3] (listed as cisplatin); 22200 nM in the assay with MCF-7 (breast cancer); 1510 nM in [4]. Besides, the IC50 in assay [5] was 10400 nM; in the assay with A549-MCTSs (72 h, PrestoBlue, poly-HEMA coated wells), 44000 nM. Moreover, the “Fold resistance (A2780cis/A2780)” value in assay [5] is given as 6.93. In the assay with A549-MCTSs (cisplatin vs complex 3), the “IC50 fold higher than complex 3 in A549-MCTSs” value is on record as 46 fold.
